Literature values as cited in patent US20020187562A1, “Materials for separating and detecting enantiomers of amphetamine or methamphetamine, and their application” (priority 2001, published 2002).

Test system: central nervous system
Settings: relative to D-MA

In the case of CN[C@H](C)Cc1ccccc1 [L-MA, (R)-(−)-N-methyl-1-phenyl-2-aminopropane], the “stimulation to the central nervous system of humans compared with D-MA” value is listed as “much weaker than that of D-MA”.
